Results taken from ChEMBL document CHEMBL4152312, “Identification of fused pyrimidines as interleukin 17 secretion inhibitors” (Eur J Med Chem, 2018).
pIC50: −log10 of the molar value.

Key:
PBMC [1] = experiment: Inhibition of IL-17 secretion in anti-human CD3 antibody/anti-human CD28 antibody/IL23-stimulated human PBMC after 48 hrs by ELISA; type: functional, cell-based
PBMC [2] = experiment: Inhibition of IL-5 secretion in anti-human CD3 antibody/anti-human CD28 antibody/IL23-stimulated human PBMC after 48 hrs by ELISA; type: functional, cell-based
PBMC [3] = experiment: Cytotoxicity against human PBMC assessed as induction of cell death by cell Titer-Glo assay; type: cell-based

COc1ccc(-c2cc3c(NC(CC(N)=O)c4ccccc4)ncnc3s2)cc1 (centres undefined)
pIC50 (PBMC [1]): 5.40 | pIC50 (PBMC [2]): 5.10 to 5.12 | pIC50 (PBMC [3]): < 4.52

COc1ccc(-c2cc3c(N[C@H](CCO)c4ccccc4)ncnc3s2)cc1
pIC50 (PBMC [1]): < 5.00

CN(C)CCn1cc(-c2cccc(O)c2)c2c(N[C@H](CO)c3ccccc3)ncnc21
pIC50 (PBMC [1]): < 5.00

CN(C)CCn1cc(-c2ccc(F)c(CO)c2)c2c(N[C@H](CO)c3ccccc3)ncnc21
pIC50 (PBMC [1]): < 5.00

COc1cc(CO)ccc1-c1cc2c(N[C@H](CO)c3ccc(F)cc3)ncnc2[nH]1
pIC50 (PBMC [1]): 5.51 | pIC50 (PBMC [3]): < 5.00

COc1cccc(-c2cc3c(N[C@H](C)c4ccccc4)ncnc3s2)c1OC
pIC50 (PBMC [1]): < 5.00

C[C@@H](Nc1ncnc2[nH]cc(-c3ccc(F)c(CO)c3)c12)c1ccccc1
pIC50 (PBMC [1]): 5.51 | pIC50 (PBMC [3]): < 5.00

Cn1cc(-c2cccc(O)c2)c2c(N[C@H](CO)c3ccccc3)ncnc21
pIC50 (PBMC [1]): 5.55 | pIC50 (PBMC [3]): < 5.00

CC(CO)Nc1ncnc2c1c(-c1cccc(O)c1)cn2CCN(C)C (single isomer, unassigned)
pIC50 (PBMC [1]): < 5.00

CN(C)CCn1cc(-c2ccc(O)cc2)c2c(N[C@H](CO)c3ccccc3)ncnc21
pIC50 (PBMC [1]): < 5.00

C=Cc1ccc(-c2cc3c(N[C@H](C)c4ccccc4)ncnc3s2)cc1
pIC50 (PBMC [1]): < 5.00

COc1cccc(OC)c1-c1cc2c(N[C@H](CO)c3ccccc3)ncnc2s1
pIC50 (PBMC [1]): 5.15 | pIC50 (PBMC [3]): < 4.52

NC(=O)CC(Nc1ncnc2sc(-c3ccc(CO)cc3)cc12)c1ccccc1 (centres undefined)
pIC50 (PBMC [1]): 5.48 | pIC50 (PBMC [3]): < 5.00

OCc1ccc(-c2cc3c(Nc4cccc(OCc5ccccc5)c4)ncnc3[nH]2)cc1
pIC50 (PBMC [1]): 5.66 | pIC50 (PBMC [3]): < 5.00

CS(=O)(=O)CCNCc1ccc(-c2ccc3ncnc(Nc4ccc(OCc5cccc(F)c5)c(Cl)c4)c3c2)o1 [LAPATINIB]
pIC50 (PBMC [3]): 4.55

C[C@@H](Nc1ncnc2sc(-c3ccccc3)cc12)c1ccccc1
pIC50 (PBMC [1]): < 5.00

C[C@@H](Nc1ncnc2[nH]cc(-c3ccc(F)c(CNCCN(C)C)c3)c12)c1ccccc1
pIC50 (PBMC [1]): 5.30 | pIC50 (PBMC [3]): < 5.00

CC(C)c1cc(C(C)C)c(-c2cc3c(N[C@H](C)c4ccccc4)ncnc3s2)c(C(C)C)c1
pIC50 (PBMC [1]): < 5.00

Fc1ccc(Nc2ncnc3sc(-c4ccc(Br)cc4)cc23)cc1Cl
pIC50 (PBMC [1]): < 5.00

OCc1ccc(-c2cc3c(Nc4ccc(OCc5cccc(F)c5)c(Cl)c4)ncnc3[nH]2)cc1
pIC50 (PBMC [1]): < 5.00

COc1cc(CO)ccc1-c1cc2c(N[C@H](CO)c3ccccc3)ncnc2s1
pIC50 (PBMC [1]): 5.34 | pIC50 (PBMC [2]): 4.85 | pIC50 (PBMC [3]): < 4.52

COc1ccccc1-c1cc2c(N[C@H](C)c3ccccn3)ncnc2s1
pIC50 (PBMC [1]): < 5.00

Fc1ccc(-c2cc3c(Nc4cccc(OCc5ccccc5)c4)ncnc3[nH]2)cc1
pIC50 (PBMC [1]): < 5.00

COc1ccc(-c2cc3c(N[C@H](CO)c4ccccc4)ncnc3s2)cc1
pIC50 (PBMC [1]): < 5.00

Oc1ccc(-c2cc3c(OC(c4ccccc4)C(F)(F)F)ncnc3s2)cc1 (centres undefined)
pIC50 (PBMC [1]): < 5.00

Oc1ccccc1-c1cc2c(OC(c3ccccc3)C(F)(F)F)ncnc2s1 (centres undefined)
pIC50 (PBMC [1]): < 5.00

COc1cc(CO)ccc1-c1cc2c(Nc3ccc(OCc4cccc(F)c4)c(Cl)c3)ncnc2s1
pIC50 (PBMC [1]): 5.05 | pIC50 (PBMC [2]): < 4.52 | pIC50 (PBMC [3]): 4.55

COc1ccc(-c2cc3c(N[C@@H](C)CO)ncnc3s2)cc1
pIC50 (PBMC [1]): < 5.00

Oc1cccc(-c2c[nH]c3ncnc(Nc4ccc(OCc5cccc(F)c5)c(Cl)c4)c23)c1
pIC50 (PBMC [1]): < 5.00

Cc1cc(C)c(-c2cc3c(N[C@H](C)c4ccccc4)ncnc3s2)c(C)c1
pIC50 (PBMC [1]): < 5.00

OCc1ccc(-c2cc3c(Nc4cccc(OCc5ccccc5)c4)ncnc3s2)cc1
pIC50 (PBMC [1]): < 5.00

COc1ccc(-c2cc3c(N[C@H](C)C4CCCCC4)ncnc3s2)cc1
pIC50 (PBMC [1]): < 5.00

CC(Nc1ncnc2[nH]c(-c3ccc(CO)cc3)cc12)C12CC3CC(CC(C3)C1)C2 (centres undefined)
pIC50 (PBMC [1]): 5.30 | pIC50 (PBMC [3]): < 5.00

CN(C)CCn1cc(-c2ccc(CO)cc2)c2c(N[C@H](CO)c3ccccc3)ncnc21
pIC50 (PBMC [1]): < 5.00

COc1cccc(OC)c1-c1cc2c(N[C@H](C)c3ccccc3)ncnc2[nH]1
pIC50 (PBMC [1]): 5.38 | pIC50 (PBMC [2]): 5.60 | pIC50 (PBMC [3]): < 5.00

COc1cc(F)ccc1-c1cc2c(N[C@H](CO)c3ccccc3)ncnc2[nH]1
pIC50 (PBMC [1]): 5.37 to 5.39 | pIC50 (PBMC [2]): 5.96 | pIC50 (PBMC [3]): < 5.00

Oc1cccc(-c2cc3c(OC(c4ccccc4)C(F)(F)F)ncnc3s2)c1 (centres undefined)
pIC50 (PBMC [1]): < 5.00

COc1cc(CO)ccc1-c1cc2c(N[C@H](CO)c3ccccc3)ncnc2[nH]1
pIC50 (PBMC [1]): 5.49 to 5.51 | pIC50 (PBMC [2]): 5.46 to 5.64 | pIC50 (PBMC [3]): < 4.52

Fc1ccc(-c2cc3c(Nc4cccc(OCc5ccccc5)c4)ncnc3s2)cc1
pIC50 (PBMC [1]): < 5.00
